Results: patent publication US20220362174A1, “Use of R-enantiomer Beta2-agonists for prevent and treatment of pulmonary inflammation and inflammatory remodeling for reduced adverse effects” (priority 2019, published 2022)
Entries after “also recorded” stand apart in the source; their conditions may differ.

What was measured:
OVA induced asthma mice [1] = test: Combination therapy of ipratropium with RS-, R- and S-salbutamol: airway resistance in response to methacholine; type: in vivo; settings: for increase in airway resistance after treatment: response to methacholine, OVA + Saline 445%
Protocol: OVA sensitized/challenged asthma model Mice were sensitized and challenged with ovalbumin (OVA) or normal saline. […] On days 21, 22 and 23, the mice were challenged with 1% OVA in saline (0.01 g/mL) for 20 min via. a nebulizer (PART Turbo boy). […] In vivo airway responsiveness to methacholine (Mch) was assessed on day 28 in conscious, freely moving, spontaneously breathing mice by a whole-body plethysmography (Buxco Electronics Inc.). […] Before Mch challenge, a 20 μL drug aerosol or saline was given to the mice because of the short-acting bronchodilating effect of terbutaline. The degree of bronchoconstriction was expressed as enhanced pause (Penh), a calculated dimensionless value that correlates with measurement of airway resistance, impedance, and intrapleural pressure. […] Methods used were similar as mentioned above. Nebulized aerosol of saline, Methacholine 2 mg/ml (low dose) or 10 mg/ml (high dose) were given via inhalation to OVA induced asthma mice.

OVA induced asthma mice [2] = test: Combination therapy of ipratropium with R- and S-salbutamol: lung histopathology (Masson, PAS); type: in vivo
Protocol: (§1) Left lung tissue was obtained for histopathology and fixed in 10% formalin for 24 h, followed by paraffin-embedded and then were sectioned at 4 μm for routine staining with hematoxylin and eosin (H&E, Solarbio, Beijing, China), or with periodic acid-Schiff (PAS, Solarbio, Beijing, China), or submitted to Masson's trichrome staining (Baso, Zhuhai, China). Images of the stained lung sections were obtained by an Axisplus image-capturing system (Zeiss, Germany) and then a minimum of 3 bronchi (luminal diameter, 150-500 μm) were analyzed per mice for various parameters using an image analyzing computer system (IPP) by pathologists blinded to grouping. Histological score, airway smooth muscle thickness, PAS score (goblet cells hyperplasia), and collagen deposition were evaluated by a semi-quantitative scoring method.
Methods used were similar as mentioned above. Nebulized aerosol of saline, Methacholine 2 mg/ml (low dose) or 10 mg/ml (high dose) were given via inhalation to OVA induced asthma mice.

[3] = system: LPS-induced RAW264.7 cells; test: M1/M2 macrophage polarization by flow cytometry; type: cell-based; settings: pretreated prior to LPS 100 ng/mL; basal 24.7%, LPS 59.2%; (R)-salbutamol 10 μM
Protocol: (§2) Macrophages were treated without or with (R)/(S)-salbutamol for 1 h prior to LPS stimulation and subsequently incubated for 12 h. […] The fluorescence of the oxidized product (2′,7′-dichlorofluorescein, DCF) was assessed using an LSM710 Laser Scanning Confocal Microscope (Carl Zeiss, Jena, Germany). The concentration of NO in the culture supernatant was measured by assaying the concentrations of nitrite (a stable NO breakdown product) using the Griess assay (Beyotime, Shanghai, China), according to the manufacturer's instructions. The intracellular NO level was detected using the NO-sensitive fluorescence probe DAF-FM DA (Sigma, St. Louis, Mo., USA) (24). Cells were labeled with DAF-FM DA (10 μM) at 37° C. for 30 min and were gently washed three times with PBS. Fluorescence was detected using a LSM710 Laser Scanning Confocal Microscope (Scale bars, 100 μm) (Carl Zeiss, Jena, Germany).
Macrophages M1 (F4/80+/CD11c+/CD206−) and M2 (F4/80+/CD11c−/CD206+) polarization were analyzed using flow cytometry.

[4] = system: LPS-induced macrophage RAW264.7 cells; test: M1 macrophage cytokines (TNF-α, IL-1β, MCP-1) by ELISA; type: cell-based; settings: LPS challenge
Protocol: as §2
To confirm that M1 polarization was predominant over M2 polarization after stimulation with LPS, the levels of typical M1 macrophage cytokines (i.e., TNF-α, IL-1β and MCP-1) were quantified using ELISA; these cytokines are mainly synthesized by macrophages and play an important role in inflammatory diseases (35,36). This invention disclosed that TNF-α […] from 2.62-fold to 0.75-fold of control levels following LPS stimulation (FIG. 8A). IL-1β is a hallmark of many chronic inflammatory diseases in humans and is reportedly associated with acute phase reactions (35,37). […] We conclude that LPS is likely to lead to M1 polarization but not M2 polarization.

[5] = system: LPS-induced RAW264.7 cells; test: NO production (DAF-FM DA probe, Griess assay); type: cell-based; settings: LPS-induced cells
Protocol: as §2
In addition, the concentration of NO in the culture supernatant was measured by assaying the concentrations of nitrite (a stable NO breakdown product) using the Griess assay. […] To investigate (R)-salbutamol role on the level of iNOS, the mRNA and protein levels of iNOS were determined.

[6] = system: LPS-induced RAW264.7 cells; test: Intracellular ROS (DCFH-DA); type: cell-based; settings: LPS-induced cells
Protocol: as §2
LPS can promote cell apoptosis through mitochondrial dysfunction, and mitochondria are the major source of ROS.

BALB/c mice [7] = test: Survival study after LPS challenge (sepsis); type: in vivo; settings: for Percent of death after LPS challenges, 12 h: Saline + LPS 0; for Percent of death after LPS challenges, 24 h: Saline + LPS 36.4; for Percent of death after LPS challenges, 36 h: Saline + LPS 72.7; for Percent of death after LPS challenges, 48 h / Percent of death after LPS challenges, 72 h / Percent of death after LPS challenges, 144 h: Saline + LPS 90.9
Protocol: Treatment were given intraperitoneally for 3 consecutive days. One hour after the 3rd day treatments, LPS (15 mg/kg) was administered intraperitoneally. The animals were monitored. Survival rate was then recorded every 12 h for 144 hours.

BALB/c mice [8] = test: Lung function measurements 6 hours after LPS (Buxco); type: in vivo; settings: 5.0 mg/kg
Protocol: Methods: Survival study: […] Treatment were given intraperitoneally for 3 consecutive days. […] The animals were monitored. Survival rate was then recorded every 12 h for 144 hours. The lung functions were measured with using Buxco system (Buxco Electronics, USA). After a brief acclimation to the chamber, the mice received an initial baseline challenge of saline. Measures were made at 6 hours after administration of LPS, including tidal volume and Penh which is an indication of airway resistance.

[9] = system: OVA-sensitized/OVA-challenged mice; test: Airway responsiveness to methacholine by whole-body plethysmography (Penh) in OVA sensitized/challenged asthma model; type: in vivo
Protocol: (§3) OVA sensitized/challenged asthma model Mice were sensitized and challenged with ovalbumin (OVA) or normal saline. Briefly, mice were sensitized by intraperitoneal (i.p.) injection of 0.2 mL of 2% aluminum hydroxide (ALUM) gel containing 10 μg of OVA antigen on days 0 and 14. On days 21, 22 and 23, the mice were challenged with 1% OVA in saline (0.01 g/mL) for 20 min via. a nebulizer (PART Turbo boy). On day 26, a 20 min nebulized OVA challenge with 5% OVA in saline (0.05 g/mL) was conducted. The control group received 0.2 mL of saline with 2% ALUM administered intraperitoneally on days 0 and 14 before receiving 20 min nebulized normal saline without OVA on days 21, 22, 23 and 26.
In vivo airway responsiveness to methacholine (Mch) was assessed on day 28 in conscious, freely moving, spontaneously breathing mice by a whole-body plethysmography (Buxco Electronics Inc.). Mice were challenged with aerosolized saline or increasing concentrations of Mch (2, 10, 20 mg/mL) administered by an ultrasonic nebulizer for 2 min. Before Mch challenge, a 20 μL drug aerosol or saline was given to the mice because of the short-acting bronchodilating effect of terbutaline. The degree of bronchoconstriction was expressed as enhanced pause (Penh), a calculated dimensionless value that correlates with measurement of airway resistance, impedance, and intrapleural pressure. Penh values were recorded and averaged for 4 min after each nebulization challenge.

[10] = system: OVA-sensitized/OVA-challenged mice; test: Whole blood analysis and eosinophils counts in BAL fluid; type: in vivo; settings: OVA asthma mice after repeated inhalation
Protocol: as §3
After Methacholine challenge, mice were anesthetized, blood was collected for hematology analysis. Part of the collected blood was transferred to a heparinized Eppendorf tube, gently mixed and centrifuged under 845×g at 4° C. for 10 min to isolate plasma specimen for further analysis. Broncho alveolar lavage (BAL) was performed on the right lung using 0.3 mL of phosphate buffered saline (PBS) for four times. The saline was instilled into the lungs and allowed to equilibrate for 30 s before recovery, after centrifugation supernatants were stored at −80° C. for further cytokines analysis while cell pellet was suspended in 0.5 ml PBS and the eosinophils counts were performed using Wright's stain. Then all the organs (liver, right lung lobe, spleen, kidneys, heart, brain) were excised surgically and washed totally with ice-cold PBS to clear the blood and then blotted dry with filter paper. These tissue specimens were then accurately weighted and stored at −80° C. for detecting the drug distribution by LC-MS/MS. White blood cell (WBC) counts and differential WBC counts were analyzed using a ProCyte Dx Hematology Analyzer (IDEXX Laboratories) in 4 h after blood collection.

[11] = system: OVA-sensitized/OVA-challenged mice; test: Lung histopathology (H&E, PAS, Masson) after R-, S-, rac-terbutaline; type: in vivo
Protocol: as §3, §1

p38 MAPK = test: Western blot of lung tissue: p38 MAPK phosphorylation; type: in vivo, mice; settings: vs OVA group
Protocol: as §3
Total protein from lung tissue was extracted according to the guidelines of manufacturer (Beyotime, China) and the concentrations were determined by BCA assay (Pierce). Primary antibodies against p38 MAPK (CST #8690), p-p38 MAPK (Thr180/Tyr182, CST #4511), NF-κB p65 (GeneTex #GTX102090), p-NF-κB p65 (S536, CST #3033) and GAPDH (Affinity #AF7021) as a standard were purchased and used.

[12] = system: macrophages from the peritoneal fluid; test: LPS-induced proliferation and polarization of macrophages from the peritoneal fluid (sepsis); type: in vivo; settings: in comparison of sepsis condition
From the text: Macrophage activation and proliferation was considered to be the key step of initiation and development of sepsis. In one embodiment, LPS (PAMPs from bacteria) induced a proliferation and polarization of macrophages from the peritoneal fluid. […] These inhibitory effects can be blocked by using specific β2-recepter blocker.

Compound: CC(C)(C)NC[C@@H](O)c1ccc(O)c(CO)c1 [S-salbutamol, (S)-salbutamol, reference compound]
- increase in airway resistant in response to methacholine (in words) (OVA induced asthma mice [1]): much greater; also recorded: further enhance the airway response to methacholine
- increase in airway resistance after treatment (OVA induced asthma mice [1]): 486%
- PAS staining: goblet cell hyperplasia, mucus over secretion, airway edema (OVA induced asthma mice [2]; vs OVA model): further worsen the inflammatory condition
- Masson staining: collagen deposition, wall thickness of bronchiole and vascular vessels (OVA induced asthma mice [2]; vs ova (model) group): further worsens the inflammatory conditions and further increased the wall thickness
- prevalence of M1 macrophages (F4/80+/CD11c+/CD206−) [3]: facilitated macrophage polarization
- release and expression of cytokines in LPS induced M1 macrophages (in words) [4]: had the opposite effects
- release and expression of cytokines in LPS induced M1 macrophages (in words) ([4]; listed as S-albuterol): increased the release of cytokines
- production/levels of NO (in words) [5]: increased
- production/levels of ROS (in words) [6]: increased
- Percent of death after LPS challenges, 12 h (BALB/c mice [7]; 0.5 mg/kg + LPS): 0%
- Percent of death after LPS challenges, 24 h (BALB/c mice [7]; 0.5 mg/kg + LPS): 36.4%
- Percent of death after LPS challenges, 36 h (BALB/c mice [7]; 0.5 mg/kg + LPS): 90.9%
- Percent of death after LPS challenges, 48 h (BALB/c mice [7]; 0.5 mg/kg + LPS): 90.9%
- Percent of death after LPS challenges, 72 h (BALB/c mice [7]; 0.5 mg/kg + LPS): 90.9%
- Percent of death after LPS challenges, 144 h (BALB/c mice [7]; 0.5 mg/kg + LPS): 90.9%
- rate of mortality/death after LPS challenge (in words) (BALB/c mice [7]; in comparison of LPS challenged group without pretreatment (mortality 90.9%)): same rate of death at 48 hours; also recorded: higher rate of death at 36 h

Compound: CC(C)(C)NCC(O)c1ccc(O)c(CO)c1 (racemic) [RS salbutamol, salbutamol]
- increase in airway resistance after treatment (OVA induced asthma mice [1]): 214%

Compound: C[C@@H]1C[C@H]2[C@@H]3CCC4=CC(=O)C=C[C@]4(C)[C@@]3(F)[C@@H](O)C[C@]2(C)[C@@]1(O)C(=O)CO [Dexamethasone, dexamethasone, reference compound]
- Percent of death after LPS challenges, 12 h (BALB/c mice [7]; 5.0 mg/kg + LPS): 0%
- Percent of death after LPS challenges, 24 h (BALB/c mice [7]; 5.0 mg/kg + LPS): 90.9%
- Percent of death after LPS challenges, 36 h (BALB/c mice [7]; 5.0 mg/kg + LPS): 90.9%
- Percent of death after LPS challenges, 48 h (BALB/c mice [7]; 5.0 mg/kg + LPS): 100%
- Percent of death after LPS challenges, 72 h (BALB/c mice [7]; 5.0 mg/kg + LPS): 100%
- Percent of death after LPS challenges, 144 h (BALB/c mice [7]; 5.0 mg/kg + LPS): 100%
- Tidal volume (BALB/c mice [8]; LPS + saline 0.13 ± 0.03): 0.15 ± 0.04 mL
- Penh (BALB/c mice [8]; LPS + saline 1.31 ± 0.40): 1.01 ± 0.46

Compound: CC(C)(C)NCC(O)c1cc(O)cc(O)c1 (racemic) [rac-terbutaline, terbutaline]
- airway bronchoconstriction/hyperactivity (Penh) in response to increased doses of Mch ([9]; Mch 2, 10, 20 mg/mL aerosol, rac-ter at double dose of R-ter): much less effect
- baseline Penh value (baseline airway reactivity) ([9]; exposure to saline, after 7 days inhalation pretreatment, OVA group 0.80±0.12, Control group 0.55±0.08, rac-terbutaline at double molar amount): significantly reduce
- per cent of eosinophil counts in blood and BALF ([10]; listed as RS(rac)-terbutaline): significantly higher
- per cent of eosinophil counts in blood and BALF ([10]; listed as racemic terbutaline): less but similar effects as S-terbutaline
- PAS stain of lung tissues: inflammatory and histopathological changes, collagen deposition ([11]; Example 3, vs model): significant less beneficial effects
- degree of inflammatory cell infiltration (H&E, histological score) ([11]; rac-terbutaline at double dose): ameliorated
- PAS and Masson staining: subepithelial matrix glycoproteins, goblet cell hyperplasia, collagen deposition ([11]; vs OVA group): much less or not effective
- p38 MAPK phosphorylation (ratio of phosphorylated to total p38 MAPK) (p38 MAPK): much less effects

Compound: OCc1cc([C@H](O)CNCCCCCCOCCCCc2ccccc2)ccc1O [(S)-salmeterol, reference compound]
- polarized M1 macrophages or M2 macrophages [12]: further increased
